Assay results reported in the NIST ThermoML archive (doi:10.1021/je0495583).
Numbers after ± are expanded uncertainties.

Assays:
[1] = 293.15 K; 101.33 kPa; Liquid; Pycnometric method
[2] = refractive index (Na D-line) (dimensionless); settings: 298.15 K; 101.33 kPa; Liquid; Standard Abbe refractometry

| mass density [1] | refractive index [2] | SMILES |
| --- | --- | --- |
| 778.4 ± 0.8 kg/m3 | 1.4236 ± 0.0008 | C1CCCCC1 [cyclohexane] |
| 659.4 ± 0.6 kg/m3 | 1.3722 ± 0.0007 | CCCCCC [hexane] |

Second part, the molecule before the results:

| SMILES | mass density [1] | refractive index [2] |
| --- | --- | --- |
| CCC(C)(C)OC [2-methoxy-2-methylbutane] | 770.6 ± 0.8 kg/m3 | 1.3867 ± 0.0008 |
| COC(C)(C)C [2-methoxy-2-methylpropane] | 740.5 ± 0.8 kg/m3 | 1.366 ± 0.0008 |
| Cc1ccccc1 [toluene] | 866.2 ± 0.9 kg/m3 | 1.4941 ± 0.0008 |
